{"source": "patent US20170363646A1", "about": "“METHOD FOR DETECTING MOLECULES THAT INHIBIT THE INTERACTION OF CD36 PROTEIN WITH AMYLOID BETA” (Instituto de Investigaciones Cientificas y Servicios de …, priority 2015, published 2017)", "key": {"[1]": {"target": "T1, interaction between rCD36 and fAβ1-42 (Homo sapiens, UniProt P16671)", "T1 construct": "the extracellular domain of the CD36 protein, corresponding to Gly30-Asn439; 6xHis (C); made in house; host or cells: Escherichia coli BL21 (DE3), pET30-CD36; purified by IMAC under denaturing conditions and renatured in PBS", "T1 sequence (P16671 30-439)": "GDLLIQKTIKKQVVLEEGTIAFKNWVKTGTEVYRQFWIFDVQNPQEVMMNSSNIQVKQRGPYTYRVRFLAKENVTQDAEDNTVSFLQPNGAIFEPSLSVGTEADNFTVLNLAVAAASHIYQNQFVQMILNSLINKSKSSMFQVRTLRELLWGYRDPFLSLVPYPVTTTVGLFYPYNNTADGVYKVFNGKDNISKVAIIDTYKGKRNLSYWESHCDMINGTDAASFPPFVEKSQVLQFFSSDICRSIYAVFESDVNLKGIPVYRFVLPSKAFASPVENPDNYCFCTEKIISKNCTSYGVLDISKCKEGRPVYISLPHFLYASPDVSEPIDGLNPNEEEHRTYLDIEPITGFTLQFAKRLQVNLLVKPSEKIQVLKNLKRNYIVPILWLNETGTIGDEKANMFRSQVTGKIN", "experiment": "colorimetric rCD36-fAβ1-42 interaction assay on polystyrene plate", "type": "binding", "settings": "added 30 minutes prior to fAβ1-42 and maintained, p<0.05 by t-test, FIG. 7", "text": "The invention consists in the development of a rapid colorimetric procedure that through the adhesion of the recombinant protein CD36 to a polystyrene plate enables the evaluation of molecules that can inhibit the interaction of such protein and the amyloid beta. The process or method of this invention is based on the interaction of A) recombinant extracellular portion of the CD36 protein with B) the Aβ peptide in its fibril state. […] The presence of compounds that inhibit the ligand-receptor interaction in the reaction produces a reduction of the colorimetric signal generated after the addition of the substrate (FIG. 1). The fibrillar Aβ is prepared on the basis of the synthetic peptide incubated at 37° C., in distilled water. The fibrils are prepared by controlling the polymerization of the monomers, which is monitored through the Thioflavin T fluorescent assay (11). […]\nConsidering that the vast majority of the natural or synthetic compounds that will be tested in the screening phase are diluted in Dimethyl Sulfoxide (DMSO), the tolerance of the assay to this solvent was evaluated. First, the assay sensitivity was evaluated at a concentration of 0.1% DMSO in conjugated serial dilutions where concentrations of rCD36 and fAβ1-42 varied, similar to the description given in example 2 (FIG. 3). […] Later, the tolerance of the assay was evaluated at different doses of DMSO. […]"}, "[2]": {"tested_on": "microglial cell line", "settings": "previously demonstrated (17); cited from earlier work"}, "[3]": {"target": "interaction between CD36 and fAβ1-42 (Homo sapiens, UniProt P16671)", "sequence (P16671 whole entry)": "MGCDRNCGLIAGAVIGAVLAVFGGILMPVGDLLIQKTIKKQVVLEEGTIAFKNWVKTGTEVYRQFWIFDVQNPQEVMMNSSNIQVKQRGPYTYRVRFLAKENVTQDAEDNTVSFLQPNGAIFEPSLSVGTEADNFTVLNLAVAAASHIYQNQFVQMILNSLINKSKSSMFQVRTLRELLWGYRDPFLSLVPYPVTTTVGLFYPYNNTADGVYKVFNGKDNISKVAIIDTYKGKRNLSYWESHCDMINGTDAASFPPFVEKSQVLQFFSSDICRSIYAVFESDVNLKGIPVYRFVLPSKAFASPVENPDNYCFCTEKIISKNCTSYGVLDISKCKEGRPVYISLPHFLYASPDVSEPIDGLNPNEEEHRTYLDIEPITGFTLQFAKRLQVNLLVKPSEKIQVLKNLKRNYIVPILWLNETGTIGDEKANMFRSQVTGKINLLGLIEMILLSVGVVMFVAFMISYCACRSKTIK", "settings": "cell-based assay, previously demonstrated (17); cited from earlier work"}}}
{"smiles": "C[C@H]1[C@H](C)CC[C@]2(C(=O)O)CC[C@]3(C)C(=CC[C@@H]4[C@@]5(C)CC[C@H](O)C(C)(C)[C@@H]5CC[C@]43C)[C@H]12", "note": "[ursolic acid]", "values": [{"measurement": "decrease of the interaction between rCD36 and fAβ1-42", "setting": "[1]; ursolic acid 100 μM", "result": "significant decrease"}, {"measurement": "decrease of the interaction between rCD36 and fAβ1-42", "setting": "[1]; ursolic acid 200 μM", "result": "significant decrease"}, {"measurement": "effect on Aβ-induced nitric oxide production", "setting": "[2]", "result": "this inhibition impacts on the Aβ-induced nitric oxide production"}, {"measurement": "inhibition of the interaction between CD36 and fAβ1-42", "setting": "[3]", "result": "inhibits such interaction"}]}
